# Test results as given in patent US20250154152A1, “INHIBITORS OF NAEGLERIA FOWLERI” (Wisconsin Alumni Research Foundation, priority 2023, published 2025).
# System: N. fowleri strain Nf69 (ATCC 30215) trophozoites
# Assay: Determination of EC50 values against Naegleria fowleri (growth inhibition, CellTiter Glo, 48 h)
# Assay type: cell-based
# Details: ATCC30215, 48 h, read-out: EC50 uM against N. fowleri
# Summary of the method: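 Axenic Nf69 trophozoites in Nelson's complete medium with 10% FBS exposed to compound, initially 20–0.375 μM, for 48 h at 37 °C, 5% CO2. Viability read by CellTiter-Glo luminescence; % growth inhibition versus controls, triplicate averages fitted for EC50, with lower ranges used for very potent compounds.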
row,Compound,EC50
1,"CN1CCC[C@H]2c3nc4ccc(Cl)cc4c(=O)n3CC[C@@H]21 [trans-10b-ent-2, (4aS,13bR)-10-chloro-4-methyl-1,2,3,4,4a,5,6,13b-octahydro-8H-[1,6]naphthyridino[5,6-b]quinazolin-8-one]",1 to 10 µM
2,"CN1CCC[C@H]2c3nc4ccc(C(F)(F)F)cc4c(=O)n3CC[C@@H]21 [trans-10d-ent-2, (4aS,13bR)-4-methyl-10-(trifluoromethyl)-1,2,3,4,4a,5,6,13b-octahydro-8H-[1,6]naphthyridino[5,6-b]quinazolin-8-one]",1 to 10 µM
3,"CN1CCC[C@H]2c3nc4cc(Cl)c(Cl)cc4c(=O)n3CC[C@@H]21 [trans-10f-ent-2, (4aS,13bR)-10,11-dichloro-4-methyl-1,2,3,4,4a,5,6,13b-octahydro-8H-[1,6]naphthyridino[5,6-b]quinazolin-8-one]",1 to 10 µM

# Same assay, conditions: ATCC30215, N. fowleri Nf69 trophozoites, 48 h culture, 37° C., CellTiter Glo luminescence, read-out: EC50 uM against N. fowleri
row,Compound,EC50
1,"Cn1c([C@H]2CCCN(CC3COC3)C2)nc2cc(Cl)c(Cl)cc2c1=O [Compound S-14e, (S)-6,7-dichloro-3-methyl-2-(1-(oxetan-3-ylmethyl)piperidin-3-yl)quinazolin-4(3H)-one]",> 10 µM
2,"Cn1c([C@H]2CCCN(CCO)C2)nc2cc(Cl)c(Cl)cc2c1=O [Compound S-14y, (S)-6,7-dichloro-2-(1-(2-hydroxyethyl)piperidin-3-yl)-3-methylquinazolin-4(3H)-one]",> 10 µM
3,"CN1CCC[C@@H]2c3nc4ccc(Cl)cc4c(=O)n3CC[C@H]21 [trans-10a-ent 1, (4aR,13bS)-10-chloro-4-methyl-1,2,3,4,4a,5,6,13b-octahydro-8H-[1,6]naphthyridino[5,6-b]quinazolin-8-one]",0.1 to 1 µM
4,"CN1CCC[C@@H]2c3nc4ccc(C(F)(F)F)cc4c(=O)n3CC[C@H]21 [trans-10c-ent-1, (4aR,13bS)-4-methyl-10-(trifluoromethyl)-1,2,3,4,4a,5,6,13b-octahydro-8H-[1,6]naphthyridino[5,6-b]quinazolin-8-one]",0.1 to 1 µM
5,"CN1CCC[C@@H]2c3nc4cc(Cl)c(Cl)cc4c(=O)n3CC[C@H]21 [trans-10e-ent-1, (4aR,13bS)-10,11-dichloro-4-methyl-1,2,3,4,4a,5,6,13b-octahydro-8H-[1,6]naphthyridino[5,6-b]quinazolin-8-one]",0.0001 to 0.1 µM

# Same assay, conditions: ATCC30215, positive control, N. fowleri Nf69 trophozoites, 48 h, CellTiter Glo, read-out: N. fowleri EC50
row,EC50,Compound
1,35.7 ± 9.1 µM,"CCCCCCCCCCCCCCCCOP(=O)([O-])OCC[N+](C)(C)C [Miltefosine, miltefosine, reference compound]"
